Data: US4162311A, “Medicinal preparation with pronounced vegetotropic and antiepileptic effect for treating psychoneurotic disorders” (priority 1977, dated 1979)
Entries after “also recorded” stand apart in the source; their conditions may differ.

Key:
[1] = sedative effect / depression in animals; assay type: in vivo, mice and rats
[2] = system: cholinesterase; assay: anticholinesterase properties
[3] = solubility; assay type: physicochemical
Source text: Hydrazide of diphenylphosphinylacetic acid is a bitter-tasting odorless white crystalline powder. It is soluble in water (1:100), alcohol and chloroform, but insoluble in benzene and ether.

[4] = system: serotonin content in brain tissue; assay: serotonin content in brain tissue of mice; assay type: in vivo
[5] = system: apomorphine toxicity and stereotypy; assay: apomorphine toxicity and stereotypy; assay type: in vivo, mice
[6] = system: arecoline tremor; assay: M-cholinolytic effect: arecoline tremor in mice; assay type: in vivo
[7] = system: monoaminooxidaze; assay: monoaminooxidaze suppression, inferred from hexenal sleep; assay type: in vivo; settings: concluded from equal hexenal sleep at 2 and 22 hours
Source text: (§1) A dose as low as 1/5 DMT potentiates barbamil.

[8] = clinical: acute alcoholic abstinence; assay type: in vivo, patients; settings: of 30 alcoholics; first two days; placebo 10 of 30
Source text: On the whole, the proposed preparation reduced the period of abstinence 2- to 3-fold.

[9] = system: hypothermal effect of aminazine (chlorpromazine); assay: hypothermal effect of aminazine (chlorpromazine); settings: in vivo
[10] = cumulative effect; settings: in vivo
[11] = analgetic effect in mice
[12] = local irritant effect; settings: in vivo
[13] = prolonged treatment, anatomical and histological examination, rabbits; assay type: in vivo; settings: intramuscular, 50 mg/kg
[14] = system: nicotine-induced convulsions; assay: nicotine-induced convulsions in mice; assay type: in vivo
[15] = system: effects of nibuphin; assay: synergism with nibuphin; settings: in vivo
[16] = chemical stability / shelf life; assay type: physicochemical
Source text: Hydrazide of diphenylphosphenylacetic acid is a bitter-tasting odorless white powder.

[17] = body temperature of mice; assay type: in vivo; settings: for decrease of body temperature (hypothermal effect): 200 mg/kg (DMT)
[18] = clinical: temporal lobe epilepsy; assay type: in vivo, patients
Source text: Good results were also obtained in treating 18 cases of temporal lobe epilepsy with predominant psychosensory, psychomotor, vegetative and emotional fits. For a number of years, all the patients had been given anticonvulsants and tranquilizers which were derivatives of benzodiazepin. In most of these cases conventional treatment had been ineffective. The proposed preparation brought about a dramatic change: in 14 cases the attacks either ceased completely or their frequency was reduced by more than half.

[19] = system: action of serotonin on a separated rat's intestine; assay: separated intestine with serotonin
[20] = behavior of rabbits after intramuscular administration; assay type: in vivo; settings: 50 mg/kg
[21] = system: convulsant effects of corasole and caffeine; assay: sensitivity of mice to the convulsant effects of corasole and caffeine; assay type: in vivo
[22] = clinical: neurasthenia with vegetovascular dystonia; assay type: in vivo, patients
[23] = prolonged treatment, anatomical and histological examination, mice; assay type: in vivo; settings: intraperitoneal, 35 mg/kg (1/9 LD50)
[24] = system: lethal dose of cocaine; assay: lethal dose of cocaine in mice
[25] = clinical: hypothalamic syndrome with sympathoadrenal crises; assay type: in vivo, patients; settings: of 20 cases
Source text: In 12 cases the number and intensity of fits were reduced and general improvement was observed. Earlier, all the patients had been repeatedly admitted to neurological hospitals where they were subjected to different forms of treatment, including drug therapy with the use of tranquilizers of the benzodiazepin derivatives. The effect of such treatment was quite moderate and unstable and was only manifest in a reduced number of fits and a slight improvement of the general state of the patients.

[26] = system: sympathoadrenal and hypothalamohypophysioadrenal systems; assay: clinical studies of vegetovascular dystonia; assay type: in vivo, patients; settings: 32 cases
[27] = system: separated intestines; blood pressure and respiration of rabbits; assay: peripheral adrenolytic effect: separated intestines, blood pressure and respiration of rabbits
[28] = system: epileptic seizures caused by microinjections of penicillin; assay: epileptic seizures caused by microinjections of penicillin into the hippocamp; assay type: in vivo; settings: rabbits, 20 to 100 mg/kg
Source text: (§2) As regards the effects of the proposed preparation on convulsions induced in animals in the course of an experiment, the mechanism of action appears to be more complicated.

[29] = system: phenamine stereotypy; assay: phenamine stereotypy in rats
[30] = system: orientating reaction in mice; assay: orientating reaction in mice; assay type: in vivo; settings: intra-abdominal, 1/8 DMT, one hour before
[31] = system: convulsions caused by corasole, strychnine, and electroconvulsion therapy; assay: convulsions caused by corasole, strychnine and electroconvulsion therapy; assay type: in vivo, animals
Source text: as §2

[32] = clinical investigation in neurotic and psychic disorders
[33] = acute toxicity / tolerance dose; settings: in vivo
[34] = clinical safety on prolonged use; assay type: in vivo, patients
Source text: The proposed preparation can be used for treating both young and old patients, as well as those having concomitant diseases of internal organs.

[35] = system: hexenal, barbamil, urethane and chloral hydrate effect; assay: interaction with narcotics and soporifics (hexenal, barbamil, urethane, chloral hydrate); assay type: in vivo
Source text: as §1

NNC(=O)CP(=O)(c1ccccc1)c1ccccc1 [Hydrazide of diphenylphosphinylacetic acid]
sedative effect ([1]; animals): pronounced sedative effect | lowest dose causing depression ([1]; mice and rats): 1/3 | depression (without "on-side" position) ([1]; mice and rats, tolerance doses, beginning with 1/3 DMT): causes depression in mice and rats | anticholinesterase properties [2]: do not possess anticholinesterase properties | solubility in alcohol ([3]; alcohol): soluble | solubility in benzene ([3]; benzene): insoluble | solubility in chloroform ([3]; chloroform): soluble | solubility in ether ([3]; ether): insoluble | serotonin content in brain tissue [4]: decreases the serotonin content | effect on toxicity of apomorphine ([5]; mice): does not intensify the toxicity of apomorphine in mice | effect on duration of apomorphine stereotypy ([5]; mouse, in vivo): nor does it affect the duration of apomorphine stereotypy | effect on arecoline tremor ([6]; mice): does not mitigate arecoline tremor in mice | effect on duration of arecoline tremor ([6]; mice): nor does it affect its duration | M-cholinolytic effect ([6]; mouse, in vivo): no M-cholinolytic effect | suppression of monoaminooxidaze activity [7]: does not suppress the monoaminooxidaze activity | patients with considerable improvement [8]: 20 | effect on hypothermal effect of aminazine (chlorpromazine) [9]: intensifies the hypothermal effect | cumulative effect [10]: no cumulative effect | effect on analgetic effect of analginum ([11]; 1/2 DMT): intensified the analgetic effect of analginum | effect on analgetic effect of morphine ([11]; 1/4 DMT): intensified the analgetic effect of morphine | lowest dose with analgetic effect ([11]; mice): 1/4 | duration of analgetic effect ([11]; mice, 1/2 DMT): three hours | duration of analgesia ([11]; mice, DMT): more than five hours | local irritant effect [12]: no local irritant effect | changes in blood and internal organs [13]: no changes in the blood and internal organs | nicotine-induced convulsions [14]: relieve nicotine-induced convulsions in mice | increase of survival rate ([14]; nicotine-induced convulsions): 50% | synergism with nibuphin [15]: synergism | shelf life [16]: longer than two years | chemical stability ([16]; powder and solution): chemically stable both in the form of powder and solution | effect on body temperature ([17]; 30 mg/kg (1/7 DMT)): no effect | effect on body temperature ([17]; 60 mg/kg (printed 166 DMT)): no effect | decrease of body temperature (hypothermal effect) ([17]; 1.5 hours): 4.3 °C | decrease of body temperature (hypothermal effect) ([17]; 3 hours): 3.4 °C | dysphorias and patients' behavior ([18]; 18 cases): dysphorias were better endured, and the patients' behavior became more controlled | electroencephalography ([18]; 18 cases): reduction in the paroxysmal activity and normalization of recordings | cases in which attacks ceased completely or frequency reduced by more than half ([18]; of 18 cases): 14 cases | antagonism of serotonin on separated intestine [19]: prevents the action of serotonin | effect on animals' behavior [20]: in no way affected the animals's behavior | sensitivity to convulsant effects of corasole and caffeine [21]: increases the sensitivity of mice | vegetovascular crises ([22]; 8 of 11 patients): reduced number or even complete eliminationn of vegetovascular crises | patients with significant improvement ([22]; of 11 patients, end of the first week): 8 patients | changes in blood and internal organs [23]: no changes in the blood and internal organs | prevention of death of mice [24]: 60% | cases with marked improvement (crises ceased, working capacity restored) [25]: 5 cases | cases with number and intensity of fits reduced and general improvement [25]: 12 cases | excretion of adrenalin and 17-oxycorticosteroids with urine [26]: pronounced normalization | extraction of norepinephrine [26]: tendenecy towards a normalized extraction | functions of sympathoadrenal and hypothalamohypophysioadrenal systems ([26]; course of treatment): normalized the functions | peripheral adrenolytic effect [27]: no peripheral adrenolytic effect | epileptic seizures [28]: prevents or reduces the frequency of epileptic seizures | advent of phenamine stereotypy ([29]; great doses): prevents the advent | duration of phenamine stereotypy ([29]; rats, 10 mg/kg to 400 mg/kg): statistically reliable reduction | effect on orientating reaction [30]: affects the orientating reaction in mice | prevention of convulsions [31]: does not prevent convulsions | tranquilizer strength ([32]; human, in vivo): relatively weak tranquilizer | night sleep effect ([32]; neuroses): light night sleep compeller | onset of sleep ([32]; neuroses): accelerates the onset of sleep | efficacy versus known drugs ([32]; neurotic and psychic disorders with vegetovascular disturbances and epileptic fits without convulsions): superior in this respect to the known drugs | side effects or complications ([32]; patients): no side effects or complications | tolerance ([32]; patients): good tolerance | relaxation effect ([32]; patients, versus benzodiazepin derivatives): absence to a marked relaxation effect | toxicity [33]: limited toxicity | LD50 ([33]; iv, injected intravenously, species not given): 293 mg/kg | MTD ([33]; mouse, mice, read-out: DMT (tolerance dose)): 200 mg/kg | electrocardiography ([34]; 8 to 12 weeks): nor are there any changes that could be detected by electrocardiography | morphological and biochemical composition of the blood ([34]; 8 to 12 weeks): does not change the morphological and biochemical composition of the blood | habit formation ([34]; clinical): not habit-forming | toxicity ([34]; clinical): low toxicity | contraindication ([34]; human, in vivo): gastric ulcer with a tendency to frequency exacerbations | impediment to drivers ([34]; human, in vivo): no impediment to drivers | side effects or complications ([34]; prolonged administration): no side effects or complications | lowest dose potentiating barbamil ([35]; barbamil): 1/5 | duration of hexenal sleep ([35]; hexenal given 2 and 22 hours after the preparation): induces sleep of equal duration | potentiation of narcotics and soporifics ([35]; in vivo): potentiates hexenal, barbamil, urethane and chloral hydrate; also recorded: exhibits the properties of a true Brodie potentiator
